Test results: US5840718A, “22-epimeric-1,25-dihydroxy-16,22,23-triene-cholecalciferol” (Hoffmann-La Roche Inc., priority 1997, dated 1998)
Read-outs that look alike come from different tables or passages of the source.

Assays:
HaCaT cell line = experiment: Inhibition of Keratinocyte Proliferation (3H-thymidine uptake, HaCaT cells); type: cell-based; conditions: Homo sapiens, 3H-thymidine incorporation, 6 days, read-out: IC50, concentration leading to 50% of control values
HL-60 cells = experiment: Induction of HL-60 Cell Differentiation (NBT reduction); type: cell-based; conditions: 3 days, relative to maximal differentiation with 100-1000 nM calcitriol, mean of 3 wells, 4320 min, read-out: ED50, concentration leading to 50% of maximal differentiation
Method: Induction of HL-60 Cell Differentiation
The induction of differentiation of HL-60 cells was assayed by measuring their oxidative burst potential via the reduction of nitrobluetetrazolium (NBT).
HL-60 cells (30,000 cells in 90 μl of supplemented RPMI medium) were seeded into flat-bottomed microliter wells. Immediately after seeding, 10 μl of test compounds listed below in Table II diluted in supplemented RPMI medium were added to the wells to yield final concentrations of between 10^-11 and 10^-6 M (starting from stock solutions of 10^-2 M in ethanol, stored at -20° C. and protected from light). After 3 days, medium was removed from the wells with a multichannel pipette and replaced with 100 μl of NBT solution (1 mg/ml in phosphate buffered saline with 200 nM phorbol myristate acetate). Following an additional hour incubation at 37° C. the NBT solution was removed and 100 μl of 10% sodium dodecyl sulfate in 0.01N HCl was added. The amount of the reduced NBT was quantified photometrically at 540 nm using an automated plate reader. The mean of 3 wells was calculated. […] Values were expressed as percent of maximal differentiation achieved with 100-1000 nM calcitriol in the same experiment.

[1] = system: γ-Interferon Release in Human T-cells; experiment: Inhibition of γ-Interferon Release in Human T-cells (ELISA); type: cell-based; conditions: PHA-stimulated human lymphocytes, IFN-γ by ELISA, days 3 and 4, read-out: IC50, concentration leading to 50% of control values (IFN-γ)
Method: Inhibition of γ-Interferon Release in Human T-cells
(§1) Mononuclear cells were isolated from venous blood of healthy donors by centrifugation of buffy coat leucocytes atop Ficoll-Paque. […] 100 μl of this cell suspension were seeded into flat-bottom microtiter wells and stimulated with 1 μg/ml of the T-cell specific mitogen phytohemagglutinine (PHA). Immediately after seeding, the test compounds listed below in Table IV were added to yield final concentrations of between 1×10^-11 M-1×10^-6 M. All tests were run in the quadruplicates.
On days 3 and 4, medium was removed from the wells and the content of IFN-γ was analyzed by ELISA. Values are expressed as percent of controls (samples without test compound).

Human T-cell = experiment: Inhibition of Human T-cell Proliferation (3H-thymidine); type: cell-based; conditions: PHA-stimulated human lymphocytes, 3H-thimidine after 3 and 4 days, read-out: IC50, concentration leading to 50% of control values (T-cell proliferation)
Method: Inhibition of Human T-cell Proliferation
as §1, with “[…]” for “μl”, “[…]” for “μg/ml”, “PHA.” for “the T-cell specific mitogen phytohemagglutinine (PHA).”, “V” for “IV”
After 3 and 4 days, ^3 H-thymidine (5 Ci/mmol) was added to wells at a concentration of […]. Cells were pulse-labeled for the last 6 hours of the growth period. Cells were then harvested on to a 96 well filter plate using a cell harvester. After drying at 40° C. under vacuum for 20-30 minutes, 20 μl of scintillor were added and the radioactivity bound to the filters was counted. Values are expressed as percent controls (samples without test compounds).

Sebaceous cells = experiment: Inhibition of Sebaceous Cell Proliferation; type: cell-based, human; conditions: read-out: ED50, amount of compound necessary to inhibit the proliferation of the sebaceous cells by 50%
Method: Inhibition of Sebaceous Cell Proliferation
Sebaceous cells were isolated from adult human sebaceous glands, derived from facial skin removed during cosmetic surgery. This method is described in an article by Doran et al. in J. Invest. Dermatol. 96:341-348 (1991).
The cells were cultured in Iscove's medium containing 10% fetal calf-serum and 4 μg/ml dexamethasone on a layer of growth-arrested 3T3 mouse fibroblasts.
Cells were plated in medium without the test compound and then given the compound in fresh medium 24-48 hours after the initial plating. The cultures were given fresh medium, containing the test compound, every 48 hours. On the day of harvesting, the cultures were rinsed with 0.03% ethylenediamine tetraacetic acid (EDTA) in phosphate buffered saline (PBS), to remove only the 3T3 fibroblasts. The remaining sebocyte colonies were incubated in 0.05% trypsin/0/03% EDTA to create a single cell suspension of sebocytes. The cells were suspended, mixed vigorously to prepare a single cell suspension, and counted in a hemocytometer.
All compounds were handled in the following manner. Stock solutions were made up as 10-^2 M solutions in degassed 100% ethanol and stored at -20° C. in the dark. Solutions were never used after storage of more than a month. During experimental use the solutions, which had been aliquoted, were thawed once and used by diluting directly into complete medium to the appropriate concentration.
The results are summarized in Table III below as the amount of compound necessary to inhibit the proliferation of the sebaceous cells by 50% (ED50) in μM as compared to a control, vehicle treated only, culture.

[2] = Calcium tolerance test in mice; type: in vivo; conditions: daily subcutaneous, 4 consecutive days, dose giving zero weight gain during 5 day treatment period
Text: Calcium tolerance test in mice
Profound changes in calcium homeostasis strongly affect the weight development of mice.
Mice (25-30 g body weight) received daily subcutaneous administrations of the compound for 4 consecutive days. Body weight was registered just before and at the end of a […] treatment period. The "highest tolerated dose" (HTD) is the dose which results in zero weight gain during this treatment period.

SMILES	IC50 (HaCaT cell line)	EC50 (HL-60 cells)	IC50 [1]	IC50 (Human T-cell)	IC50 (Sebaceous cells; adult human facial sebaceous cells, vs vehicle treated control, listed as 1α,25-Dihydroxy-16,22R,23-triene-cholecalciferol)	HTD, highest tolerated dose [2]	IC50 (Sebaceous cells; adult human facial sebaceous cells, vs vehicle treated control, listed as 1α,25-Dihydroxy-16,22S,23-triene-cholecalciferol)	IC50 ([1]; T-cell)	IC50 (Human T-cell; T-cell)	IC50 (Sebaceous cells; Homo sapiens)
C=C1/C(=C\C=C2/CCC[C@]3(C)C([C@H](C)C=C=CC(C)(C)O)=CC[C@@H]23)C[C@@H](O)C[C@@H]1O [1,25-Dihydroxy-16,22S,23-triene-cholecalciferol] [listing 1 of 2 here]	40 nM	–	–	–	–	–	–	–	–	–
C=C1/C(=C\C=C2/CCC[C@]3(C)C([C@H](C)C=C=CC(C)(C)O)=CC[C@@H]23)C[C@@H](O)C[C@@H]1O [1,25-Dihydroxy-16,22R,23-triene-cholecalciferol]	–	0.22 nM	0.05 nM	0.55 nM	1 nM	0.0025 mg/kg	–	–	–	–
C=C1/C(=C\C=C2/CCC[C@]3(C)C([C@H](C)C=C=CC(C)(C)O)=CC[C@@H]23)C[C@@H](O)C[C@@H]1O [1,25-Dihydroxy-16,22S,23-triene-cholecalciferol] [listing 2 of 2 here]	–	4.8 nM	3 nM	6 nM	–	0.05 mg/kg	10 nM	–	–	–
C=C1/C(=C\C=C2/CCC[C@]3(C)[C@@H]([C@H](C)CCCC(C)(C)O)CC[C@@H]23)C[C@@H](O)C[C@@H]1O [1,25-Dihydroxy-cholecalciferol, reference compound]	55 nM	–	–	–	–	–	–	0.8 nM	10 nM	50 nM
